Data reported in the supplement of paper PMC11451515.

Tested on: SEM cells
Experiment: cell viability relative to DMSO control; higher = less cytotoxic
Conditions: 48 h
In short: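 Three leukemia lines were tested: NOMO1 and SEM at 500 cells/well and P12-Ichikawa at 1000 cells/well. Each was adapted for at least four passages in each medium and seeded in 5 μl in 1536-well plates, and library compounds in DMSO were pin-dosed from 47 μM to 0.79 nM in 11 threefold steps. After 48 h at 37°C, CellTiter-Glo One luminescence was read. Viability is a percentage relative to DMSO wells on each plate, with cell-free wells as background.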

[1] = HPLM + 10% dialyzed FBS, 0.000781 µM
[2] = HPLM + 10% dialyzed FBS, 0.00234 µM
[3] = HPLM + 10% dialyzed FBS, 0.00702 µM
[4] = HPLM + 10% dialyzed FBS, 0.0211 µM
[5] = HPLM + 10% dialyzed FBS, 0.0632 µM
[6] = HPLM + 10% dialyzed FBS, 0.19 µM
[7] = HPLM + 10% dialyzed FBS, 0.569 µM
[8] = HPLM + 10% dialyzed FBS, 1.71 µM
[9] = HPLM + 10% dialyzed FBS, 5.12 µM
[10] = HPLM + 10% dialyzed FBS, 15.4 µM
[11] = HPLM + 10% dialyzed FBS, 46.1 µM
[12] = RPMI 5 mM glucose + 10% FBS, 0.000781 µM
[13] = RPMI 5 mM glucose + 10% FBS, 0.00234 µM
[14] = RPMI 5 mM glucose + 10% FBS, 0.00702 µM
[15] = RPMI 5 mM glucose + 10% FBS, 0.0211 µM
[16] = RPMI 5 mM glucose + 10% FBS, 0.0632 µM
[17] = RPMI 5 mM glucose + 10% FBS, 0.19 µM
[18] = RPMI 5 mM glucose + 10% FBS, 0.569 µM
[19] = RPMI 5 mM glucose + 10% FBS, 1.71 µM
[20] = RPMI 5 mM glucose + 10% FBS, 5.12 µM
[21] = RPMI 5 mM glucose + 10% FBS, 15.4 µM
[22] = RPMI 5 mM glucose + 10% FBS, 46.1 µM
[23] = RPMI 5 mM glucose + 10% dialyzed FBS, 0.000781 µM
[24] = RPMI 5 mM glucose + 10% dialyzed FBS, 0.00234 µM
[25] = RPMI 5 mM glucose + 10% dialyzed FBS, 0.00702 µM
[26] = RPMI 5 mM glucose + 10% dialyzed FBS, 0.0211 µM
[27] = RPMI 5 mM glucose + 10% dialyzed FBS, 0.0632 µM
[28] = RPMI 5 mM glucose + 10% dialyzed FBS, 0.19 µM
[29] = RPMI 5 mM glucose + 10% dialyzed FBS, 0.569 µM
[30] = RPMI 5 mM glucose + 10% dialyzed FBS, 1.71 µM
[31] = RPMI 5 mM glucose + 10% dialyzed FBS, 5.12 µM
[32] = RPMI 5 mM glucose + 10% dialyzed FBS, 15.4 µM
[33] = RPMI 5 mM glucose + 10% dialyzed FBS, 46.1 µM

SMILES	cell viability [1] [%]	cell viability [2] [%]	cell viability [3] [%]	cell viability [4] [%]	cell viability [5] [%]	cell viability [6] [%]	cell viability [7] [%]	cell viability [8] [%]	cell viability [9] [%]	cell viability [10] [%]	cell viability [11] [%]	cell viability [12] [%]	cell viability [13] [%]	cell viability [14] [%]	cell viability [15] [%]	cell viability [16] [%]	cell viability [17] [%]	cell viability [18] [%]	cell viability [19] [%]	cell viability [20] [%]	cell viability [21] [%]	cell viability [22] [%]	cell viability [23] [%]	cell viability [24] [%]	cell viability [25] [%]	cell viability [26] [%]	cell viability [27] [%]	cell viability [28] [%]	cell viability [29] [%]	cell viability [30] [%]	cell viability [31] [%]	cell viability [32] [%]	cell viability [33] [%]
OC1=C(O)C2=C(\C=C/C(=O)O2)C=C1	82.7	94.1	90.2	101	65.4	102	98.4	103	99.1	93.9	9.29	91.8	106	98.1	91.6	70	91.8	98.3	102	102	93.5	7.55	83.2	101	98.9	102	78.8	101	112	101	90.4	90.3	9.04
C[C@]\12CC[C@H](O)CC1=C/CC3C2CC[C@@]\4(C)C3C\C=C4[N]5C=NC6=C5C=CC=C6 (stereo partly specified)	90.4	82.4	99.7	103	61.4	97.7	109	115	109	114	101	96.1	93.3	101	121	96.6	97	109	115	117	113	104	99.8	88.9	106	115	102	103	108	119	109	109	112
COC[C@H]1OC(=O)C2=COC3=C2[C@@]1(C)\C4=C(C5CCC(=O)[C@@]5(C)C[C@H]4OC(C)=O)/C3=O (stereo partly specified)	72.1	84.9	96.8	17.5	99.5	93	93.6	95.6	85.6	82	95.3	90.8	107	101	14.7	109	102	107	111	81.5	92.2	80.3	89.2	84.6	88.9	16.4	88.6	85.1	94.8	82.9	77.1	63.5	50.9
CCc1cncnc1N1CCN(Cc2nc3cc(C(F)(F)F)ccc3[nH]2)CC1	107	104	111	101	106	105	105	97.1	88.2	62.4	35.5	93.8	109	106	99.9	101	108	96.2	94.7	84.3	62	23.7	73.3	112	111	109	103	105	81.2	98.2	84.4	60.8	22.1
Cc1nc(NC(=O)N2CCC[C@H]2C(N)=O)sc1-c1ccnc(C(C)(C)C(F)(F)F)c1	91.6	98.2	84.2	96.9	93	72.5	74.4	63.3	59.1	52.7	100	98.7	111	102	121	112	91.1	97.8	86.6	74.5	68.2	119	96.3	95.9	84	93	85.7	92.3	86.1	77.2	62.2	58	89.2
COc1c(C)cnc(Cn2cnc3c(Cl)nc(N)nc32)c1C	94.1	106	103	112	102	76.9	52.8	28.3	15.9	22.3	17.6	108	125	99.6	115	100	77.3	50	25.5	16.1	22.9	17.3	115	104	106	116	124	78.6	52.9	33.1	15.8	25	22.1
CC(=O)O.Cc1c(-c2ccc(O)cc2)n(Cc2ccc(OCCN3CCCCCC3)cc2)c2ccc(O)cc12	88.5	50	91.9	92	99.7	112	102	101	93.5	117	99.5	92	46.9	89	98.7	86.6	95.4	89.2	95.5	86.9	92.5	94.4	90.2	41.7	93.8	99.6	81.2	102	101	94.1	110	119	101
